Data: patent US5292742A, “Angiotensin II receptor blocking 2,3,6 substituted quinazolinones” (American Cyanamid Company, priority 1993, dated 1994)

Target: T1, Angiotensin II Receptor (Bos taurus, UniProt P25104)
T1 construct: The brownish tissue forming the adrenal cortex is scraped off and finely minced with scissors before homogenization; tissue Maxwell-Cohen (local slaughter house); host or cells: beef adrenal cortex, microsomal (100,000 x g) membranes
T1 sequence (P25104 1-359): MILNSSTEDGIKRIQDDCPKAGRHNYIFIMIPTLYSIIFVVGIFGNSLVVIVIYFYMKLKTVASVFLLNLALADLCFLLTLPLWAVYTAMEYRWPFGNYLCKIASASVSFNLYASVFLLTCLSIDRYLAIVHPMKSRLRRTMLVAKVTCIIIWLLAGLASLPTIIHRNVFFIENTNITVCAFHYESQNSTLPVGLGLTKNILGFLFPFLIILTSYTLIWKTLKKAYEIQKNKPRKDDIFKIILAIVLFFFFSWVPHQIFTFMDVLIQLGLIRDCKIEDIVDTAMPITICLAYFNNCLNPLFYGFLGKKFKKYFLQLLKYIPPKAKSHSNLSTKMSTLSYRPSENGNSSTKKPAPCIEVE
Assay: [125I](Sar1,Ile8)AngII receptor binding assay, bovine adrenal cortex membranes
Conditions: beef adrenal cortex membranes
Text: Beef adrenals are obtained from a local slaughter house (Maxwell-Cohen). [^125 I](Sar^1,ILe^8)-AngII, S.A. 2200 Ci/mmole, is purchased from Dupont (NEN®, Boston, Mass.). All unlabeled AngII analogs, Dimethylsulfoxide (DMSO), nucleotides, bovine serum albumin (BSA) are purchased from Sigma Chemical Co., St. Louis, MO U.S.A.
Approximately sixteen (16) to twenty (20) beef adrenal glands are processed as follows: fresh adrenal glands received on crushed ice are cleaned of fatty tissues and the tough membranes encapsulating the glands are removed and discarded. The brownish tissue forming the adrenal cortex is scraped off and finely minced with scissors before homogenization. Care is taken to avoid contamination with medullary tissue during dissection. The scraped cortices are suspended in twenty volumes of an ice-cold buffer medium consisting of 10 mM Tris.HCl (pH 7.4 at 22° C.) and containing 1.0 mM EDTA and 0.2M sucrose. Unless otherwise indicated, all subsequent operations are done at 4° C. […] The homogenate is centrifuged first at low speed (3,000 ×g) for 10 min. […] A 100 ul aliquot is withdrawn and the protein content of the preparation is determined by the Lowry's method (Lowry, O.H., Rosebrough, N.F., Farr, A.L. and Randall, R.J., Protein measurement with Folin phenol reagent. J. Biol. Chem., […], 265-275, 1951). […]

Row | IC50 | Structure (SMILES)
1 | 0.102 µM | CCCCc1nc2ccc(C3=NN4CCCC4C3)cc2c(=O)n1Cc1ccc(-c2ccccc2-c2nnn[nH]2)cc1 (centres unmarked) [Example 10, 2-Butyl-6-(3a,4,5,6-tetrahydro-3H-pyrrolo[1,2-b]-pyrazol-2-yl)-3-[[2'-(1H-tetrazol-5-yl)[1,1'-biphenyl]-4-yl]methyl]-4(3H)-quinazolinone]
2 | 0.0564 µM | CCCCc1nc2ccc(C3=NN4CCCCC4C3)cc2c(=O)n1Cc1ccc(-c2ccccc2-c2nnn[nH]2)cc1 (centres unmarked) [Example 11]
